Here are results for two molecules from publication PMC5854716, “Synthesis, molecular docking, ctDNA interaction, DFT calculation and evaluation of antiproliferative and anti-Toxoplasma gondii activities of 2,4-diaminotriazine-thiazole derivatives” (Medicinal Chemistry Research, 2018).

Assay [1] concerns Toxoplasma gondii BK strain. In words: T. gondii tachyzoite intracellular proliferation in VERO host cells ([3H]uracil incorporation). The class given is cell-based. The note with it: Toxoplasma gondii. Here is the method:
The epithelial cell line VERO (ATCC-Catalog No. CCL-81^TM), derived from the kidney of the African green monkey, Cercopithecus aethiops and fibroblast cell line L-929 (ATCC-Catalog No. CCL-1^TM), derived from Mus musculus (http://www.atcc.org) were grown in Iscoves’s Modified Dulbecco’s Medium (IMDM) supplemented with 10% (v/v) fetal bovine serum (FBS), plus 2 mM L-glutamine, 100 U/ml penicillin, 100.00 µg/ml streptomycin, 5 × 10^−5 M 2-mercaptoethanol and maintained at 37 °C in a 10% CO2 atmosphere. Subcultures were performed via enzymatic cell dissociation in 0.25% trypsin. After dissociation, the cells were placed in culture medium at 4 °C with 10% FBS to inhibit the action of trypsin. The isolated cells were centrifuged for 10 min at 1000×g at 4 °C, and the cells were grown in new bottles. This procedure was repeated when cells reached a confluence of ~90%. All commercial reactants and solvents were purchased from either Sigma-Aldrich Laborchemikalien GmbH (Dzitko et al. [2014]).
Suspensions of the compounds 4a–l were freshly prepared (5 mg/ml DMSO) before the cells were exposed, and diluted to appropriate concentrations; 0.9, 1.8, 3.9, 7.8, 15.6, 31.2, 62.5, and 125.00 μg/ml with the culture medium. Cells treated with 2.5% DMSO-solvent served as a control in each experiment.
Stock solutions of the Sulfadiazine (100 mg/ml 1 N NaOH; Catalog No. S8626) was freshly prepared before each experiment, and diluted to appropriate concentrations: 5.00, 25.00, 50.00, 125.00, 250.00, 500.00, 1250.00, and 2500.00 μg/ml, respectively in IMDM complete medium. All commercial reactants and solvents were purchased from either Sigma-Aldrich Laborchemikalien GmbH.
Tachyzoites of T. gondii, BK strain, were maintained in female C57BL/6 (H-2^b) and BALB/c (H-2^d) mice (with genetically determined high and low susceptibility, respectively to Toxoplasma infection) via serial intraperitoneal inoculation of 10^5–10^6 parasites per mouse in phosphate-buffered saline (PBS). After 48 to 96 h, parasites were harvested via peritoneal lavage using PBS, pH 7.2, and centrifuged at 200×g for 5 min to remove blood cells and cell debris. The supernatant containing tachyzoites was collected and centrifuged again at 2000×g for 15 min. The final pellet was resuspended in IMDM, quantified in a Burker’s chamber, and used in experimental assays. Inbred mice were kept under standard laboratory conventional conditions. All experimental procedures were conducted according to guidelines of the 9. Local Ethics Commission for Experiments on Animals in Lodz.
VERO, (2 × 10^4 cells/100 µl/well) were grown in complete medium (IMDM) on 96-well plates. After 24 h incubation, a medium was removed and then T. gondii […] tachyzoites, suspended in culture medium supplemented with 0.9–125.00 μg/ml diaminotriazines 4a–l and as a control-sulfadiazine (5.0–2500.0 μg/ml), were added (2 × 10^5 tachyzoites/200 µl/well) to the cell monolayers. After subsequent 48 h incubation 1 µCi/well of [^3H] uracil (Moravek Biochemicals Inc., Brea, CA, USA) was applied to each microculture for further 18–20 h. The amount of the isotope incorporated into the parasite nucleic acid pool, corresponding to the parasite growth, was measured by liquid scintillation counting with 1450 Microbeta Plus Liquid Scintillation Counter (Wallac Oy, Turku, Finland). The cpms of host cells alone (below 250/microculture) were subtracted from cpms of T. gondii infected microcultures (Dzitko et al. [2014]).

Assay [2] deals with normal mouse fibroblast Balb/3T3 cells. Nature of the assay: In vitro cytotoxicity (SRB), Balb/3T3. The note with it: 72 h exposure, mean ± SD. The class given is cell-based. Here is the method: (§1) Biphenotypic B myelomonocytic leukemia MV4-11, human lung carcinoma A549, human breast carcinoma MCF-7, and normal mouse fibroblast BALB/3T3 cells were obtained from American Type Culture Collection (Rockville, Maryland, USA). All the cell lines are being maintained at the Institute of Immunology and Experimental Therapy, Wroclaw, Poland. MV4-11 cells were cultured in RPMI 1640 medium (Gibco, UK) with 2 mM L-glutamine adjusted to contain 1.0 mM sodium pyruvate, and 10% fetal bovine serum (FBS) (all from Sigma-Aldrich, Germany). A549 cells were cultured in RPMI 1640+ Opti-MEM (1:1) (both from Gibco, UK), MCF-7 cells in Eagle medium (IIET, Wroclaw, Poland), BALB/3T3 in Dulbecco medium (IIET, Poland) supplemented with 2 mM L-glutamine and 1.0 mM sodium pyruvate, 10% fetal bovine serum (all from Sigma-Aldrich, Germany). The MCF-7 cell culture was supplemented with 0.8 mg/l of insulin (Sigma-Aldrich, Germany). All culture media were supplemented with 100 units/ml penicillin, and 100 µg/ml streptomycin (both from Polfa Tarchomin S.A., Poland). All cell lines were grown at 37 °C with 5% CO2 humidified atmosphere (Łączkowski et al. [2014], [2016a]). Prior to usage, the compounds were dissolved in DMSO and culture medium (1: 9) to the concentration of 1 mg/ml, and subsequently diluted in culture medium to reach the required concentrations (0.1, 1, 10, and 100 µg/ml) (Łączkowski et al. [2014], [2016a]). Twenty-four hours prior to the addition of the tested compounds, the cells counted using Burker hemocytometer were plated in 96-well plates (Sarstedt, Germany) at a density of 1 × 10^4 cells per well. The assay was performed after 72 h of exposure to varying concentrations of the tested agents. The in vitro cytotoxic effect of all agents was examined using the SRB assay for adherent cells (A549, MCF-7, and BALB/3T3) or MTT assay for leukemia cells (MV4-11) as described previously. […] Each compound in each concentration was tested in triplicate in a single experiment, which was repeated 3–7 times (Rubinstein et al. [1990]; Bramson et al. [1995]). Cells were attached to the bottom of plastic wells by fixing them with cold 50% TCA (trichloroacetic acid, POCH, Gliwice, Poland) on top of the culture medium in each well. The plates were incubated at 4 °C for 1 h and then washed five times with tap water. The cellular material fixed with TCA was stained with 0.1% sulforhodamine B (SRB, Sigma-Aldrich, Germany) and dissolved in 1% acetic acid (POCH, Gliwice, Poland) for 30 min. Unbound dye was removed by rinsing (4×) in 1% acetic acid. The protein-bound dye was extracted with 10 mM unbuffered Tris base (Sigma-Aldrich, Germany) for determination of the optical density (λ = 540 nm) in a computer-interfaced, 96-well Synergy H4 (BioTek Instruments USA) photometer microtiter plate reader (Sidoryk et al. [2012]).

Assay [3] concerns human breast carcinoma MCF-7 cells. Nature of the assay: In vitro antiproliferative assay (SRB), MCF-7. The class given is cell-based. As to conditions: 72 h exposure, mean ± SD. The procedure:
as §1

Assay [4] has as its system human lung carcinoma A549 cells. In words: In vitro antiproliferative assay (SRB), A549. The note with it: 72 h exposure, mean ± SD. The assay is classed as cell-based. The procedure:
as §1

Assay [5] has as its system biphenotypic B myelomonocytic leukemia MV4-11 cells. In words: In vitro antiproliferative assay (MTT), MV4-11. As to conditions: 72 h exposure, mean ± SD. The class given is cell-based, human. The procedure:
Biphenotypic B myelomonocytic leukemia MV4-11, human lung carcinoma A549, human breast carcinoma MCF-7, and normal mouse fibroblast BALB/3T3 cells were obtained from American Type Culture Collection (Rockville, Maryland, USA). All the cell lines are being maintained at the Institute of Immunology and Experimental Therapy, Wroclaw, Poland. MV4-11 cells were cultured in RPMI 1640 medium (Gibco, UK) with 2 mM L-glutamine adjusted to contain 1.0 mM sodium pyruvate, and 10% fetal bovine serum (FBS) (all from Sigma-Aldrich, Germany). A549 cells were cultured in RPMI 1640+ Opti-MEM (1:1) (both from Gibco, UK), MCF-7 cells in Eagle medium (IIET, Wroclaw, Poland), BALB/3T3 in Dulbecco medium (IIET, Poland) supplemented with 2 mM L-glutamine and 1.0 mM sodium pyruvate, 10% fetal bovine serum (all from Sigma-Aldrich, Germany). The MCF-7 cell culture was supplemented with 0.8 mg/l of insulin (Sigma-Aldrich, Germany). All culture media were supplemented with 100 units/ml penicillin, and 100 µg/ml streptomycin (both from Polfa Tarchomin S.A., Poland). All cell lines were grown at 37 °C with 5% CO2 humidified atmosphere (Łączkowski et al. [2014], [2016a]).
Prior to usage, the compounds were dissolved in DMSO and culture medium (1: 9) to the concentration of 1 mg/ml, and subsequently diluted in culture medium to reach the required concentrations (0.1, 1, 10, and 100 µg/ml) (Łączkowski et al. [2014], [2016a]).
Twenty-four hours prior to the addition of the tested compounds, the cells counted using Burker hemocytometer were plated in 96-well plates (Sarstedt, Germany) at a density of 1 × 10^4 cells per well. The assay was performed after 72 h of exposure to varying concentrations of the tested agents. The in vitro cytotoxic effect of all agents was examined using the SRB assay for adherent cells (A549, MCF-7, and BALB/3T3) or MTT assay for leukemia cells (MV4-11) as described previously. The results were calculated as an inhibitory concentration 50 (IC50)—the concentration of tested agent which inhibits proliferation of 50% of the cancer cell population. Each compound in each concentration was tested in triplicate in a single experiment, which was repeated 3–7 times (Rubinstein et al. [1990]; Bramson et al. [1995]).
Twenty microliter of MTT solution (MTT: 3-(4,5-dimethylthiazol-2-yl)-2,5-diphenyltetrazolium bromide, stock solution: 5 mg/ml) was added to each well and incubated for 4 h. After the incubation time was complete, 80 µl of the lysis mixture was added to each well (lysis mixture: 225 ml dimethylformamide, 67.5 g sodium dodecyl sulfate and 275 ml of distilled water). The optical densities of the samples were read after 24 h on a Synergy H4 (BioTek Instruments USA) photometer microtiter plate reader at 570 nm (Sidoryk et al. [2012]). All of chemicals were obtained from Sigma-Aldrich, Germany.

In brackets after ≈: the same amount, converted by molar mass.

For `Nc1ccc(S(=O)(=O)Nc2ncccn2)cc1` [Sulfadiazine, reference compound], the activity at 5 µg/mL in assay [1] (5.00 µg/ml, VERO host cells) was 92%. This molecule returned an activity at 25 µg/mL in assay [1] (25.00 µg/ml, VERO host cells) of 80.5%. For the same molecule, in assay [1] (50.00 µg/ml, VERO host cells), the activity at 50 µg/mL was determined as 70.7%. Besides, the activity at 125 µg/mL in assay [1] (125.00 µg/ml, VERO host cells (Table 3)) is 55.2%. In assay [1] (250.00 µg/ml, VERO host cells), the activity at 250 µg/mL was 52.8%. This molecule also had an activity at 500 µg/mL in assay [1] (500.00 µg/ml, VERO host cells) of 41.6%. This molecule had an activity at 1250 µg/mL in assay [1] (1250.00 µg/ml, VERO host cells) of 39.7%. The molecule further had an activity at 2500 µg/mL in assay [1] (2500.00 µg/ml, VERO host cells) of 39.6%. Also, the IC50 in assay [1] (VERO host cells, GraphPad Prism curves, read-out: IC50 (50% inhibition of T. gondii proliferation in vitro)) was determined as 1020 µg/mL (≈ 4.09 mM).
With `N.N.[Cl][Pt][Cl]` [cis-platin, reference compound], the “IC50 Balb/3T3” value in assay [2] was 2.55 ± 0.588 µg/mL. The “IC50 MCF-7” value in assay [3] was found to be 2.33 ± 0.465 µg/mL. Also, in assay [4], the “IC50 A549” value stood at 2.69 ± 1.119 µg/mL. The “IC50 MV4-11” value in assay [5] amounted to 0.22 ± 0.11 µg/mL.
